From patent US8227207B2, “Bioactive peptides derived from the proteins of egg white by means of enzymatic hydrolysis” (Consejo Superior de Investigaciones Cientifcas, priority 2004, dated 2012)
Entries after “also recorded” stand apart in the source; their conditions may differ. Residues, ends and D or L forms follow the SMILES beside them.

Tests used:
[1] = molecular target: T1, angiotensin converting enzyme (ACE, EC 3.4.15.1) (Oryctolagus cuniculus, UniProt P12822); assay type: biochemical; conditions: for IC50: read-out: ACEI activity IC50, synthetic peptides; for ACEI activity in vitro (in words): peptides
T1 sequence (P12822 34-1310): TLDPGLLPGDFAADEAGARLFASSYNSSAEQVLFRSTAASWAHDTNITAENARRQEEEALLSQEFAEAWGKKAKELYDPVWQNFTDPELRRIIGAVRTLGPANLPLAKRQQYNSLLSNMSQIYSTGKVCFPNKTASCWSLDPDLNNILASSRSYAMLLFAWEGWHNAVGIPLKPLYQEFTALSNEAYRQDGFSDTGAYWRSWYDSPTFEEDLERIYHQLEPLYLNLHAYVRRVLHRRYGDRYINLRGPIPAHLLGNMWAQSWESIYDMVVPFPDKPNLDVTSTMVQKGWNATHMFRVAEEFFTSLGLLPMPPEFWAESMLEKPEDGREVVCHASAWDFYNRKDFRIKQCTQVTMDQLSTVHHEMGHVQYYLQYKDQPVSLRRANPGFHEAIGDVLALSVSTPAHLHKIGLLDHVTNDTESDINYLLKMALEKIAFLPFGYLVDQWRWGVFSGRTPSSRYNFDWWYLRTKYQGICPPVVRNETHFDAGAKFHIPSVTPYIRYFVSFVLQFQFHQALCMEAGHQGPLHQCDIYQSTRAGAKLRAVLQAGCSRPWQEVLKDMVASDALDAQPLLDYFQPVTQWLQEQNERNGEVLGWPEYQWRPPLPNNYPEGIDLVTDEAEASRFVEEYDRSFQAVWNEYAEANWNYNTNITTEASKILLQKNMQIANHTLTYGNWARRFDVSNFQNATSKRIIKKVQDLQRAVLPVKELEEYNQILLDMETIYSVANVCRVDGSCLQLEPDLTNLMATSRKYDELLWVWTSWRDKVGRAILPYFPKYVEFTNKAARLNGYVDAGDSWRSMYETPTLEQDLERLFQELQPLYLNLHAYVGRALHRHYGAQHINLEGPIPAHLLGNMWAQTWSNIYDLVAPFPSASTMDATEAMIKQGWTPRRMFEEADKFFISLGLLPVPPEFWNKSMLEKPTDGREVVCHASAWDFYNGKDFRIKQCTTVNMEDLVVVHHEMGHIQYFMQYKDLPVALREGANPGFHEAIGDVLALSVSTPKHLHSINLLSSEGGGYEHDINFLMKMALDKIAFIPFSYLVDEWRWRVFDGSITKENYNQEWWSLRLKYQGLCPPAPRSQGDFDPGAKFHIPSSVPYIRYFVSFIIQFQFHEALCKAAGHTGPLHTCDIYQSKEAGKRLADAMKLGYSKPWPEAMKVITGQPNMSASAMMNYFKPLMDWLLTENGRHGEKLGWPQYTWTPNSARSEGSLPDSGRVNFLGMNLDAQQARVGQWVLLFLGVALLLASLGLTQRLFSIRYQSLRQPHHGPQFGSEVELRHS
Description: The inhibitory activity of the angiotensin converting enzyme (ACE) is measured in vitro according to the method of D. W. Cushman and H. S. Cheung (Spectrophotometric assay and properties of the angiotensin-converting enzyme of rabbit lung. Biochemical Pharmacology, 1971, 20: 1637-1648), later on modified by Y. K. Kim, S. Yoon, D. Y. Yu, B. Lönnerdal and B. H. Cheung (Novel angiotensin-I-converting enzyme inhibitory peptides derived from recombinant human αs1-casein expressed in Escherichia coli, Journal of Dairy Research 1999, 66, 431-439).
The substrate hippuryl histidyl leucine (HHL, Sigma Chemicals Co., St. Louis, Mo., USA) is dissolved in a 0.1 M borate buffer with 0.3 M NaCl pH 8.3 to obtain a final concentration of 5 mM. To 100 μl of substrate are added 40 μl of each of the samples whose ACEI activity it is wished to determine. The ACE enzyme (EC 3.4.15.1, Sigma) is added, dissolved in 50% glycerol and diluted 1/10 in bidistilled water at the moment of conducting the assay. The reaction is carried out at 37° C. for 30 minutes in a water-bath. The enzyme is deactivated by lowering the pH with 150 μl of 1 N HCl. The hippuric acid formed is extracted with 1000 μl of ethyl acetate. Following vortex stirring for 20 seconds, it is centrifuged at 4000 rpm for 10 minutes at room temperature. 750 μl of the organic phase are taken and evaporated by heating at 95° C. for 10 minutes. The hippuric acid residue is redissolved in 800 μl of bidistilled water and, following stirring for 20 seconds, the absorbency at 228 nm is measured in a Dur-70 spectrophotometer from Beckman Instruments, Inc., Fullerton, USA.
In order to calculate the percentage of ACEI activity, the following formula is used
The blank is used for correcting the background absorbency. This contains substrate, enzyme and 20 μl of bidistilled water in place of the sample, and the reaction is halted at zero time. The control implies a hundred percent of the enzymatic action on the substrate in the absence of inhibitors and contains 20 μl of water in place of the sample and is incubated the same time as the sample.
The results are presented as the IC50 (μM or μg/ml) or concentration at which 50% of the enzyme's activity is inhibited. The concentration of protein is determined by means of the bicinchonomic acid (BCA) assay (Pierce, Rockford, Ill., USA) using bovine seroalbumin as reference.

[2] = test system: spontaneously hypertensive rats (SHR); assay: Antihypertensive activity: systolic arterial pressure (tail cuff) in spontaneously hypertensive rats; assay type: in vivo, rat; conditions: for time of maximum drop in SAP after administration: intragastric probe; for drop in systolic arterial pressure (SAP) / anti-hypertensive activity (in words): single administration by intragastric probe
Description: (§1) The effect is studied of various identified peptides and of some products containing them (for example egg white hydrolysed with pepsin for 3 hours and the fraction of it less than 3000 Da) on the arterial pressure of spontaneously hypertensive rats (SHR) and Wistar-Kyoto rats (WKY) which are the normotense controls for the SHR.
(§2) This study is conducted with SHR (10) and WKY of 17-24 weeks old and weight between 300 and 350 g, coming from Charles River Laboratories España, S. A. The rats are kept in cages of five by five and maintained at a stable temperature of 25° C. with light-dark cycles of 12 hours, ingesting freely available water and food. In order to carry out the measurement of systolic arterial pressure (SAP) “tail cuff” equipment is used (Le5001, Letica) which automatically provides a digital value of the SAP and records and facilitates the cardiac frequency of the animals. Various measurements are made and the average of all of them is obtained in order to achieve a reliable value of the SAP. Before positioning the cuff and transducer in the tail of the rats, the rats are exposed to a temperature of close to 30° C. in order to facilitate dilation of the caudal artery. Also, in order to ensure the reliability of the measurement, the animals are made to get used to the procedure for two weeks prior to conducting each assay in question.
(§3) The administration of the products to be assayed is done by means of an intragastric probe in a time margin of between 9 and 10 o'clock in the morning. The SHR used for the study had SAP values of between 230 and 280 mm Hg. The WKY used for the study at that moment had SAP values of between 160 and 200 mm Hg. Measurements of the SAP were taken from the animals periodically, every 2 hours, up to 8 hours post-administration of the products to be assayed; in addition, a SAP measurement was taken 24 hours after the administration of those products. As negative control (in order to establish the circadian variation of the SAP in probed rats) the measurements of the SAP obtained in rats which had been administered 1 ml of water by means of intragastric probe were used. As positive control, the measurements of the SAP obtained in rats which had been administered 50 mg/kg of Captopril (prototype ACEI drug) by means of intragastric probe were used. This dose of Captopril was administered to each rat in a volume of 1 ml. In order to establish the effect of the unhydrolysed egg white on the arterial pressure of the animals, similar assays to those described above were conducted, in which the animals were treated by the same procedure with 200 mg/kg of previously freeze-dried egg white (reference).
The results obtained are grouped and the mean±the standard error of measurement (SEM) is obtained for a minimum of 9 homogenous assays. The data of the treated animals are always compared with the data deemed to be a negative control. In order to compare them and obtain the statistical significance, Student's t-test for unpaired data is used and the difference for values of p<0.05 is considered significant.

Wistar-Kyoto rats (WKY) = assay: Systolic arterial pressure (tail cuff) in normotense Wistar-Kyoto rats; assay type: in vivo, rat; conditions: highest dose used, intragastric probe
Description: as §1, §2, §3
The results obtained are grouped and the mean±the standard error of measurement (SEM) is obtained for a minimum of 9 homogenous assays. […]

CC[C@H](C)[C@H](NC(=O)[C@H](CCC(N)=O)NC(=O)[C@@H](N)Cc1ccc(O)cc1)C(=O)NCC(=O)N[C@@H](CC(C)C)C(=O)O [SEQ. ID. N^o 1, YQIGL] (H-YQIGL-OH; N-terminus and C-terminus assumed)
IC50 [1]: 174 µM

CC[C@H](C)[C@H](N)C(=O)N[C@H](C(=O)N[C@@H](Cc1ccccc1)C(=O)O)C(C)C [SEQ. ID. N^o 2, IVF]
ACEI activity in vitro (in words) [1]: potent ACEI activity | time of maximum drop in SAP after administration [2]: 6 h | drop in systolic arterial pressure (SAP) / anti-hypertensive activity (in words) [2]: possess anti-hypertensive activity; also recorded: significant dose-dependent drop in the SAP; also recorded: clear and pronounced anti-hypertensive effect; also recorded: display anti-hypertensive activity | change in SAP in normotense rats (in words) (Wistar-Kyoto rats (WKY)): not in normotensed Wistar-Kyoto rats; also recorded: none of these compounds modifies the SAP

CC(C)C[C@H](NC(=O)[C@H](Cc1ccccc1)NC(=O)[C@@H]1CCCN1C(=O)[C@H](Cc1c[nH]cn1)NC(=O)[C@H](CC(=O)O)NC(=O)[C@H](C)NC(=O)[C@@H](N)CCCNC(=N)N)C(=O)O [SEQ. ID. N^o 3, RADHPFL] (H-RADHPFL-OH; N-terminus and C-terminus assumed)
ACEI activity in vitro (in words) [1]: potent ACEI activity | IC50 [1]: 6.2 µM | time of maximum drop in SAP after administration [2]: 6 h | drop in systolic arterial pressure (SAP) / anti-hypertensive activity (in words) [2]: possess anti-hypertensive activity; also recorded: significant dose-dependent drop in the SAP; also recorded: clear and pronounced anti-hypertensive effect; also recorded: display anti-hypertensive activity | change in SAP in normotense rats (in words) (Wistar-Kyoto rats (WKY)): not in normotensed Wistar-Kyoto rats; also recorded: none of these compounds modifies the SAP

CC[C@H](C)[C@H](NC(=O)[C@H](CC(=O)O)NC(=O)[C@@H](N)CCCNC(=N)N)C(=O)N[C@@H](CC(C)C)C(=O)N[C@@H](CC(N)=O)C(=O)N[C@@H](CCC(N)=O)C(=O)O [SEQ. ID. N^o 7, RDILNQ] (H-RDILNQ-OH)
IC50 [1]: 436 µM

CSCC[C@H](NC(=O)[C@H](C)NC(=O)[C@H](CC(C)C)NC(=O)[C@H](C)NC(=O)[C@@H](N)CO)C(=O)O [SEQ. ID. N^o 8, SALAM] (H-SALAM-OH)
IC50 [1]: 229 µM

CC[C@H](C)[C@H](NC(=O)[C@H](CO)NC(=O)[C@@H](N)CCC(=O)O)C(=O)N[C@H](C(=O)N[C@@H](CC(N)=O)C(=O)N[C@@H](Cc1ccccc1)C(=O)O)[C@@H](C)CC [SEQ. ID. N^o 12, ESIINF] (H-ESIINF-OH)
IC50 [1]: > 1000 µM

CC(C)C[C@H](NC(=O)CNC(=O)[C@H](CO)NC(=O)[C@@H](NC(=O)[C@H](CCC(=O)O)NC(=O)[C@H](CC(=O)O)NC(=O)[C@@H]1CCCN1C(=O)[C@H](CC(C)C)NC(=O)[C@H](CC(C)C)NC(=O)[C@@H](N)C(C)C)C(C)C)C(=O)O [SEQ. ID. N^o 13] (H-VLLPDEVSGL-OH)
IC50 [1]: > 1000 µM

CC[C@H](C)[C@H](NC(=O)[C@H](CC(C)C)NC(=O)[C@@H](N)CCC(=O)O)C(=O)N[C@@H](CC(N)=O)C(=O)O [SEQ. ID. N^o 14, ELIN] (H-ELIN-OH)
IC50 [1]: > 1000 µM

CC[C@H](C)[C@H](NC(=O)[C@@H]1CCCN1C(=O)[C@H](CCC(=O)O)NC(=O)[C@H](CC(C)C)NC(=O)CNC(=O)CNC(=O)[C@H](CCCNC(=N)N)NC(=O)[C@@H](N)Cc1ccc(O)cc1)C(=O)N[C@@H](CC(N)=O)C(=O)N[C@@H](Cc1ccccc1)C(=O)O [SEQ. ID. N^o 15] (H-YRGGLEPINF-OH)
IC50 [1]: > 1000 µM

B1: unhydrolysed ovalbumin: ovalbumin grade VI (99% purity) (Sigma), unhydrolysed (protein)
chain: GSIGAASMEFCFDVFKELKVHHANENIFYCPIAIMSALAMVYLGAKDSTRTQINKVVRFDKLPGFGDSIEAQCGTSVNVHSSLRDILNQITKPNDVYSFSLASRLYAEERYPILPEYLQCVKELYRGGLEPINFQTAADQARELINSWVESQTNGIIRNVLQPSSVDSQTAMVLVNAIVFKGLWEKAFKDEDTQAMPFRVTEQESKPVQMMYQIGLFRVASMASEKMKILELPFASGTMSMLVLLPDEVSGLEQLESIINFEKLTEWTSSNVMEERKIKVYLPRMKMEEKYNLTSVLMAMGITDVFSSSANLSGISSAESLKISQAVHAAHAEINEAGREVVGSAEAGVDAASVSEEFRADHPFLFCIKHIATNAVLFFGRCVSP
ACEI activity IC50 ([1]; protein concentration, product as such): > 750 µg/mL
